Key:
[1] = biological target: T1, Solute carrier family 22 member 1 (Mus musculus, UniProt O08966); assay: TP_TRANSPORTER: inhibition of TEA uptake (TEA: 140 uM, Procainamide: 10000 uM) in Xenopus laevis oocytes; format: functional, cell-based, Oocyte; set-up: scale not given: the % may be the effect or the level left; conditions: probe TEA (140 uM), read-out: Activity
T1 sequence (O08966 whole entry): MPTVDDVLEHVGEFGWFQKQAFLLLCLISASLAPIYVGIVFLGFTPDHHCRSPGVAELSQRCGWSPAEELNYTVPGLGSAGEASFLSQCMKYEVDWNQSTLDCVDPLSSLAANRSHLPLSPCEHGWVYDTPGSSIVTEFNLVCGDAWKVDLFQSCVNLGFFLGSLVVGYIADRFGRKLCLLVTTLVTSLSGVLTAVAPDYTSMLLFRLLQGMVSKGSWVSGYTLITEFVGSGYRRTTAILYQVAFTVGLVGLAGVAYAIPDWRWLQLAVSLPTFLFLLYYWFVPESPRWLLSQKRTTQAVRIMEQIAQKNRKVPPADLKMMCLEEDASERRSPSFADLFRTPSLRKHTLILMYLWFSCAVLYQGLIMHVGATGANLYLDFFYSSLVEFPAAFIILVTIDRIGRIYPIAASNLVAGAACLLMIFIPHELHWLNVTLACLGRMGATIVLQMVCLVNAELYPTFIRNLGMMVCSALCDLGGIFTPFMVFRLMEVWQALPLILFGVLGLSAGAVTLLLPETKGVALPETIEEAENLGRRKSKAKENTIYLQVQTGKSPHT

[2] = biological target: T1, Solute carrier family 22 member 1; assay: in vitro; conditions: xenopus laevis, probe TEA (140 uM)
Description: TP_TRANSPORTER: inhibition of TEA uptake (TEA: 140 uM, Thiamine: 1000 uM) in Xenopus laevis oocytes

[3] = substrate: CC[N+](CC)(CC)CC; assay: cells, lysate or membranes named

## CCN(CC)CCNC(=O)c1ccc(N)cc1 [PROCAINAMIDE]
[1]
  activity at 10000 uM: 30.1%

## Cc1ncc(C[n+]2csc(CCO)c2C)c(N)n1 [THIAMINE ION]
[2]
  activity at 1000 µM: 12.7%

B1: Solute carrier family 22 member 1 (Mus musculus) (protein)
chain: T1 sequence (O08966 whole entry)
[3]
  Km: 38 µM

— ChEMBL document CHEMBL2073926, “Cloning and functional expression of a mouse liver organic cation transporter” (Hepatology, 1999)
